Reference: PubChem BioAssay (NCI)
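A five-concentration, 48-hour dose response in 96-well plates underlies each endpoint, interpolated linearly between surrounding concentrations. TGI is the concentration that stops growth completely.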

Assays:
Assay in all cases: NCI anticancer screen, dose series, 48 h
M14 melanoma = system: M14 melanoma
MDA-N = system: MDA-N
HOP-92 NSCLC = system: HOP-92 NSCLC
NCI/ADR-RES ovarian = system: NCI/ADR-RES ovarian
LOX IMVI melanoma = system: LOX IMVI melanoma
HCT-15 colon = system: HCT-15 colon
SN12C renal = system: SN12C renal
HL-60(TB) leukemia = system: HL-60(TB) leukemia
SK-MEL-5 melanoma = system: SK-MEL-5 melanoma
BT-549 breast = system: BT-549 breast
UO-31 renal = system: UO-31 renal
SK-MEL-2 melanoma = system: SK-MEL-2 melanoma
HS 578T breast = system: HS 578T breast
786-0 renal = system: 786-0 renal
OVCAR-4 ovarian = system: OVCAR-4 ovarian
A498 renal = system: A498 renal
MCF7 breast = system: MCF7 breast
HCT-116 colon = system: HCT-116 colon
MOLT-4 leukemia = system: MOLT-4 leukemia
SK-MEL-28 melanoma = system: SK-MEL-28 melanoma
MDA-MB-231 breast = system: MDA-MB-231 breast
SW-620 colon = system: SW-620 colon
UACC-62 melanoma = system: UACC-62 melanoma
NCI-H460 lung = system: NCI-H460 lung
OVCAR-3 ovarian = system: OVCAR-3 ovarian
CCRF-CEM leukemia = system: CCRF-CEM leukemia
A549 NSCLC = system: A549 NSCLC
ACHN renal = system: ACHN renal
PC-3 prostate = system: PC-3 prostate
SF-295 CNS = system: SF-295 CNS
HOP-62 NSCLC = system: HOP-62 NSCLC
CAKI-1 renal = system: CAKI-1 renal
MALME-3M melanoma = system: MALME-3M melanoma
SK-OV-3 ovarian = system: SK-OV-3 ovarian
T-47D breast = system: T-47D breast
EKVX NSCLC = system: EKVX NSCLC
SNB-75 CNS = system: SNB-75 CNS
TK-10 renal = system: TK-10 renal
RXF 393 renal = system: RXF 393 renal
SF-268 CNS = system: SF-268 CNS
NCI-H226 lung = system: NCI-H226 lung
MDA-MB-435 = system: MDA-MB-435
DU-145 prostate = system: DU-145 prostate
IGROV1 ovarian = system: IGROV1 ovarian
HT29 colon = system: HT29 colon
NCI-H23 lung = system: NCI-H23 lung
U251 CNS = system: U251 CNS
HCC-2998 colon = system: HCC-2998 colon
OVCAR-8 ovarian = system: OVCAR-8 ovarian
RPMI-8226 leukemia = system: RPMI-8226 leukemia
COLO 205 colon = system: COLO 205 colon
KM12 colon = system: KM12 colon
SF-539 CNS = system: SF-539 CNS
SNB-19 CNS = system: SNB-19 CNS
OVCAR-5 ovarian = system: OVCAR-5 ovarian
K-562 leukemia = system: K-562 leukemia
UACC-257 melanoma = system: UACC-257 melanoma
NCI-H522 lung = system: NCI-H522 lung

## N#Cc1c(=N)cc2c3ccccc3oc3c(C#N)c(N)[nH]c1c32
M14 melanoma
  TGI: > 100 µM
MDA-N
  TGI: > 100 µM
HOP-92 NSCLC
  TGI: > 100 µM
NCI/ADR-RES ovarian
  TGI: > 100 µM
LOX IMVI melanoma
  TGI: > 100 µM
HCT-15 colon
  TGI: > 100 µM
SN12C renal
  TGI: > 100 µM
HL-60(TB) leukemia
  TGI: > 100 µM
SK-MEL-5 melanoma
  TGI: > 100 µM
BT-549 breast
  TGI: > 100 µM
UO-31 renal
  TGI: > 100 µM
SK-MEL-2 melanoma
  TGI: > 100 µM
HS 578T breast
  TGI: > 100 µM
786-0 renal
  TGI: > 100 µM
OVCAR-4 ovarian
  TGI: > 100 µM
A498 renal
  TGI: > 100 µM
MCF7 breast
  TGI: > 100 µM
HCT-116 colon
  TGI: > 100 µM
MOLT-4 leukemia
  TGI: > 100 µM
SK-MEL-28 melanoma
  TGI: > 100 µM
MDA-MB-231 breast
  TGI: > 100 µM
SW-620 colon
  TGI: > 100 µM
UACC-62 melanoma
  TGI: > 100 µM
NCI-H460 lung
  TGI: > 100 µM
OVCAR-3 ovarian
  TGI: > 100 µM
CCRF-CEM leukemia
  TGI: > 100 µM
A549 NSCLC
  TGI: > 100 µM
ACHN renal
  TGI: > 100 µM
PC-3 prostate
  TGI: > 100 µM
SF-295 CNS
  TGI: > 100 µM
HOP-62 NSCLC
  TGI: > 100 µM
CAKI-1 renal
  TGI: > 100 µM
MALME-3M melanoma
  TGI: > 100 µM
SK-OV-3 ovarian
  TGI: > 100 µM
T-47D breast
  TGI: > 100 µM
EKVX NSCLC
  TGI: > 100 µM
SNB-75 CNS
  TGI: > 100 µM
TK-10 renal
  TGI: > 100 µM
RXF 393 renal
  TGI: > 100 µM
SF-268 CNS
  TGI: > 100 µM
NCI-H226 lung
  TGI: > 100 µM
MDA-MB-435
  TGI: > 100 µM
DU-145 prostate
  TGI: > 100 µM
IGROV1 ovarian
  TGI: > 100 µM
HT29 colon
  TGI: > 100 µM
NCI-H23 lung
  TGI: > 100 µM
U251 CNS
  TGI: > 100 µM
HCC-2998 colon
  TGI: > 100 µM
OVCAR-8 ovarian
  TGI: > 100 µM
RPMI-8226 leukemia
  TGI: > 100 µM
COLO 205 colon
  TGI: > 100 µM
KM12 colon
  TGI: > 100 µM
SF-539 CNS
  TGI: > 100 µM
SNB-19 CNS
  TGI: > 100 µM
OVCAR-5 ovarian
  TGI: > 100 µM
K-562 leukemia
  TGI: > 100 µM
UACC-257 melanoma
  TGI: > 100 µM

## CCN(CC)CCn1ncc2c(N)ncnc21
M14 melanoma
  TGI: > 100 µM
MDA-N
  TGI: > 100 µM
HOP-92 NSCLC
  TGI: > 100 µM
NCI-H522 lung
  TGI: > 100 µM
NCI/ADR-RES ovarian
  TGI: > 100 µM
LOX IMVI melanoma
  TGI: > 100 µM
HCT-15 colon
  TGI: > 100 µM
SN12C renal
  TGI: > 100 µM
SK-MEL-5 melanoma
  TGI: > 100 µM
BT-549 breast
  TGI: > 100 µM
UO-31 renal
  TGI: > 100 µM
SK-MEL-2 melanoma
  TGI: > 100 µM
HS 578T breast
  TGI: > 100 µM
786-0 renal
  TGI: > 100 µM
OVCAR-4 ovarian
  TGI: > 100 µM
A498 renal
  TGI: > 100 µM
MCF7 breast
  TGI: > 100 µM
HCT-116 colon
  TGI: > 100 µM
MOLT-4 leukemia
  TGI: > 100 µM
SK-MEL-28 melanoma
  TGI: > 100 µM
MDA-MB-231 breast
  TGI: > 100 µM
SW-620 colon
  TGI: > 100 µM
UACC-62 melanoma
  TGI: > 100 µM
NCI-H460 lung
  TGI: > 100 µM
OVCAR-3 ovarian
  TGI: > 100 µM
CCRF-CEM leukemia
  TGI: > 100 µM
A549 NSCLC
  TGI: > 100 µM
ACHN renal
  TGI: > 100 µM
PC-3 prostate
  TGI: > 100 µM
SF-295 CNS
  TGI: > 100 µM
HOP-62 NSCLC
  TGI: > 100 µM
CAKI-1 renal
  TGI: > 100 µM
MALME-3M melanoma
  TGI: > 100 µM
SK-OV-3 ovarian
  TGI: > 100 µM
T-47D breast
  TGI: > 100 µM
EKVX NSCLC
  TGI: > 100 µM
TK-10 renal
  TGI: > 100 µM
RXF 393 renal
  TGI: > 100 µM
SF-268 CNS
  TGI: > 100 µM
NCI-H226 lung
  TGI: > 100 µM
MDA-MB-435
  TGI: > 100 µM
DU-145 prostate
  TGI: > 100 µM
IGROV1 ovarian
  TGI: > 100 µM
HT29 colon
  TGI: > 100 µM
NCI-H23 lung
  TGI: > 100 µM
U251 CNS
  TGI: > 100 µM
HCC-2998 colon
  TGI: > 100 µM
OVCAR-8 ovarian
  TGI: > 100 µM
RPMI-8226 leukemia
  TGI: > 100 µM
COLO 205 colon
  TGI: > 100 µM
KM12 colon
  TGI: > 100 µM
SNB-19 CNS
  TGI: > 100 µM
OVCAR-5 ovarian
  TGI: > 100 µM
K-562 leukemia
  TGI: > 100 µM

## O=C1/C(=C/c2ccc(Cl)cc2)N=C(c2ccccc2)N1c1nc2ccc(Sc3ccccc3)cc2[nH]1
M14 melanoma
  TGI: 35.1 µM
MDA-N
  TGI: 27.7 µM
HOP-92 NSCLC
  TGI: > 100 µM
NCI-H522 lung
  TGI: 54.3 µM
NCI/ADR-RES ovarian
  TGI: 75.5 µM
LOX IMVI melanoma
  TGI: 61.9 µM
HCT-15 colon
  TGI: > 100 µM
SN12C renal
  TGI: > 100 µM
HL-60(TB) leukemia
  TGI: 35.6 µM
SK-MEL-5 melanoma
  TGI: 29.2 µM
BT-549 breast
  TGI: 57.7 µM
UO-31 renal
  TGI: > 100 µM
SK-MEL-2 melanoma
  TGI: 31.6 µM
HS 578T breast
  TGI: 91.4 µM
786-0 renal
  TGI: 64.6 µM
OVCAR-4 ovarian
  TGI: > 100 µM
A498 renal
  TGI: 72.3 µM
MCF7 breast
  TGI: 63.5 µM
HCT-116 colon
  TGI: 62.3 µM
MOLT-4 leukemia
  TGI: 87.6 µM
SK-MEL-28 melanoma
  TGI: 72.7 µM
MDA-MB-231 breast
  TGI: 90.1 µM
SW-620 colon
  TGI: 80.8 µM
UACC-62 melanoma
  TGI: 29.8 µM
NCI-H460 lung
  TGI: 61.8 µM
OVCAR-3 ovarian
  TGI: > 100 µM
CCRF-CEM leukemia
  TGI: 87 µM
A549 NSCLC
  TGI: > 100 µM
ACHN renal
  TGI: > 100 µM
PC-3 prostate
  TGI: > 100 µM
SF-295 CNS
  TGI: 87.1 µM
HOP-62 NSCLC
  TGI: > 100 µM
CAKI-1 renal
  TGI: > 100 µM
MALME-3M melanoma
  TGI: 58.9 µM
SK-OV-3 ovarian
  TGI: > 100 µM
T-47D breast
  TGI: > 100 µM
EKVX NSCLC
  TGI: > 100 µM
SNB-75 CNS
  TGI: 60.2 µM
TK-10 renal
  TGI: 59.6 µM
RXF 393 renal
  TGI: > 100 µM
SF-268 CNS
  TGI: > 100 µM
MDA-MB-435
  TGI: 27.1 µM
DU-145 prostate
  TGI: > 100 µM
IGROV1 ovarian
  TGI: > 100 µM
HT29 colon
  TGI: 40 µM
NCI-H23 lung
  TGI: > 100 µM
U251 CNS
  TGI: 84.7 µM
HCC-2998 colon
  TGI: 31.4 µM
OVCAR-8 ovarian
  TGI: > 100 µM
RPMI-8226 leukemia
  TGI: 55.7 µM
COLO 205 colon
  TGI: 33.8 µM
KM12 colon
  TGI: 81.2 µM
SNB-19 CNS
  TGI: > 100 µM
OVCAR-5 ovarian
  TGI: > 100 µM
K-562 leukemia
  TGI: 61.8 µM
UACC-257 melanoma
  TGI: 55.8 µM
